Experimental data taken from patent publication US10357493B2, “Metalloenzyme inhibitor compounds” (Selenity Therapeutics (Bermuda), Ltd., priority 2017, dated 2019).

Key:
[1] = target: HDAC1 (Homo sapiens (Human), UniProt Q13547); assay: HDAC1 enzymatic assay; assay type: biochemical; conditions: read-out: Human HDAC1 IC50
Description: (§1) All enzymatic reactions were conducted in duplicate at room temperature for 17 hours in a 50 μl mixture containing HDAC assay buffer (50 mM Tris-HCl, pH 7.4, 137 mM NaCl, 2.7 mM KCl, 0.05% Tween 20, 5 μg BSA), an HDAC substrate, an HDAC enzyme, and a test compound. Compound dilution was prepared ten-fold higher than the final concentration of the compounds with 10% DMSO in HDAC assay buffer and 5 μl of the dilution was added to a 50 μl reaction so that the final concentration of DMSO is 1% in all of reactions. After enzymatic reactions, 50 μl of HDAC Developer was added to each well and the plate was incubated at room temperature for an additional 20 minutes. Fluorescence intensity was measured at an excitation of 360 nm and an emission of 460 nm using a Tecan Infinite M1000 or Biotek Synergy microplate reader.
(§2) The fluorescent intensity data were analyzed using the computer software, Graphpad Prism. In the absence of the compound, the fluorescent intensity (Ft) in each data set was defined as 100% activity. In the absence of HDAC, the fluorescent intensity (Fb) in each data set was defined as 0% activity. The percent activity in the presence of each compound was calculated according to the following equation: % activity=(F−Fb)/(Ft−Fb), where F=the fluorescent intensity in the presence of the compound.
(§3) The values of % activity versus a series of compound concentrations were then plotted using non-linear regression analysis of Sigmoidal dose-response curve generated with the equation Y=B+(T−B)/1+10((Log EC50−X)×Hill Slope), where Y=percent activity, B=minimum percent activity, T=maximum percent activity, X=logarithm of compound and Hill Slope=slope factor or Hill coefficient. The IC50 value was determined by the concentration causing a half-maximal percent activity.
(§4) HDAC1 enzymatic assays contained 0.5 ng HDAC1 and 10 uM of HDAC substrate. HDAC2 enzymatic assays contained 0.5 ng HDAC2 and 10 uM of HDAC substrate. HDAC3 enzymatic assays contained 0.4 ng HDAC3/NCOR2 and 10 uM of HDAC substrate. HDAC4 enzymatic assays contained 0.02 ng HDAC4 and 2 uM of HDAC substrate. HDAC5 enzymatic assays contained 0.5 ng HDAC5 and 2 uM of HDAC substrate. HDAC6 enzymatic assays contained 2 ng HDAC6 and 10 uM of HDAC substrate. HDAC7 enzymatic assays contained 0.05 ng HDAC7 and 2 uM of HDAC substrate. HDAC8 enzymatic assays contained 5 ng HDAC8 and 2 uM of HDAC substrate. HDAC9 enzymatic assays contained 1 ng HDAC9 and 2 uM of HDAC substrate. HDAC10 enzymatic assays contained 75 ng HDAC10 and 10 uM of HDAC substrate. HDAC11 enzymatic assays contained 5 ng HDAC11 and 2 uM of HDAC substrate.

[2] = target: HDAC6 (Homo sapiens (Human), UniProt Q9UBN7); assay: HDAC6 enzymatic assay; assay type: biochemical; conditions: read-out: Human HDAC6 IC50
Sequence of HDAC6 (Q9UBN7 whole entry): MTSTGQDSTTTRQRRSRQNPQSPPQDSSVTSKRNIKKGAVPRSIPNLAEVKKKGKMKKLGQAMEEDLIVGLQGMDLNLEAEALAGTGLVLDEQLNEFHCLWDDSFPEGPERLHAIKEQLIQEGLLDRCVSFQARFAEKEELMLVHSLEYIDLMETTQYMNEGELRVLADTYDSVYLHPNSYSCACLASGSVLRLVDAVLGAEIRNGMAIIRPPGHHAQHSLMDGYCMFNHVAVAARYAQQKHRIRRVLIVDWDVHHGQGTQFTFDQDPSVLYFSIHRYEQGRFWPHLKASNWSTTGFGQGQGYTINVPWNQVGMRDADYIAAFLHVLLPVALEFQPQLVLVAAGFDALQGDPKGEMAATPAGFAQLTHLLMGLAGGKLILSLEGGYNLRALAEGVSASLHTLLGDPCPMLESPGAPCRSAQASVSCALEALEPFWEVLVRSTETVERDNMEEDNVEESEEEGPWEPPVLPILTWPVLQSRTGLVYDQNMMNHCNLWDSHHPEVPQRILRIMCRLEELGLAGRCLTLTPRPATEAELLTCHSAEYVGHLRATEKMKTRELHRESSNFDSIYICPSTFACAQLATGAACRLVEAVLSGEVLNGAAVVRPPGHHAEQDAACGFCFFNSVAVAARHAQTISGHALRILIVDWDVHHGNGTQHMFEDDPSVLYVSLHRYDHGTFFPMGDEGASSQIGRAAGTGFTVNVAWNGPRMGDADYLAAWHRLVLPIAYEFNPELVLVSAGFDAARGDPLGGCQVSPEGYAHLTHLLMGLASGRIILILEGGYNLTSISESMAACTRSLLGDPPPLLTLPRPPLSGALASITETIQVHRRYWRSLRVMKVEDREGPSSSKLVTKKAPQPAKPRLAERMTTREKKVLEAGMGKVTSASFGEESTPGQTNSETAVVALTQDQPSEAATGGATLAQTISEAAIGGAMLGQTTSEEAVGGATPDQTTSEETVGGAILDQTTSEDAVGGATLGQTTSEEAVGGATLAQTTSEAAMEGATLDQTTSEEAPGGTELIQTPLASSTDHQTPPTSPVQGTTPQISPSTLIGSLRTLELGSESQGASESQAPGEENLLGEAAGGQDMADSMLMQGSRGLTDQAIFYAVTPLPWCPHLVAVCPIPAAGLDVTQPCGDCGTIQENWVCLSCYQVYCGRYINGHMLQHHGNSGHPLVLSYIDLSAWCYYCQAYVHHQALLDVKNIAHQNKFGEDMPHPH
Description: as §1, §2, §3, §4

Sequence of HDAC1 (Q13547 whole entry): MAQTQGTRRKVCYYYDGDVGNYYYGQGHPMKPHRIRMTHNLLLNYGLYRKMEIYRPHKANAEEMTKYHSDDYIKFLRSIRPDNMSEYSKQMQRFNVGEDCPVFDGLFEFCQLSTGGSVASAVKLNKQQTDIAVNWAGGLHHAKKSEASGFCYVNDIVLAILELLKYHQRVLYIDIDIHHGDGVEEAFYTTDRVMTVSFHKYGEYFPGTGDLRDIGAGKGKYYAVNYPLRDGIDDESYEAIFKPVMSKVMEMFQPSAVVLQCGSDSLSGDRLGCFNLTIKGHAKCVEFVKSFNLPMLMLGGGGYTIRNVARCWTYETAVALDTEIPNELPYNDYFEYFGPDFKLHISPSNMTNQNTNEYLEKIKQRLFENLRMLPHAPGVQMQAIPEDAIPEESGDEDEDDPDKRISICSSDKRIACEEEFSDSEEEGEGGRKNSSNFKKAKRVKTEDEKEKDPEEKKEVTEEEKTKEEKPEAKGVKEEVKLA

Row | SMILES | IC50 [1] [µM] | IC50 [2] [nM]
1 | CC(=O)NCC(Nc1ncc(-c2nnc(C(F)F)o2)cn1)c1ccc(F)cc1 (racemic) [Example 78, N-(2-((5-(5-(difluoromethyl)-1,3,4-oxadiazol-2-yl)pyrimidin-2-yl)amino)-2-(4-fluorophenyl)ethyl)acetamide] | > 30 | 47
2 | CS(=O)(=O)NCC(Nc1ncc(-c2nnc(C(F)F)o2)cn1)c1ccc(F)cc1 (single isomer, unassigned) [38(−), N-(2-((5-(5-(difluoromethyl)-1,3,4-oxadiazol-2-yl)pyrimidin-2-yl)amino)-2-(4-fluorophenyl)ethyl) methanesulfonamide] | > 30 | 320
3 | CC(=O)NCC(Nc1ncc(-c2nnc(C(F)F)o2)cn1)c1ccc(F)cc1 (single isomer, unassigned) [78(+), N-(2-((5-(5-(difluoromethyl)-1,3,4-oxadiazol-2-yl)pyrimidin-2-yl)amino)-2-(4-fluorophenyl)ethyl)acetamide] | > 30 | 48
4 | CC(=O)NCC(Nc1ncc(-c2nnc(C(F)F)o2)cn1)c1ccc(F)cc1 (single isomer, unassigned) [78(−), N-(2-((5-(5-(difluoromethyl)-1,3,4-oxadiazol-2-yl)pyrimidin-2-yl)amino)-2-(4-fluorophenyl)ethyl)acetamide] | > 30 | 420
5 | Fc1ccc(C(CC(F)(F)F)Nc2ncc(-c3nnc(C(F)F)o3)cn2)c(F)c1 (single isomer, unassigned) [101(+)] | > 30 | 22
6 | Fc1ccc(C(CC(F)(F)F)Nc2ncc(-c3nnc(C(F)F)o3)cn2)c(F)c1 (single isomer, unassigned) [101(−)] | > 30 | 710
7 | CS(=O)(=O)NCC(Nc1ncc(-c2nnc(C(F)F)o2)cn1)c1ccc(F)cc1F (single isomer, unassigned) [103(−), N-(2-((5-(5-(difluoromethyl)-1,3,4-oxadiazol-2-yl)pyrimidin-2-yl)amino)-2-(2,4-difluorophenyl)ethyl)methanesulfonamide] | > 30 | 650
8 | CS(=O)(=O)NCC(Nc1ncc(-c2nnc(C(F)F)o2)cn1)c1ccc(OC(F)F)cc1 (single isomer, unassigned) [115(−), N-(2-(4-(difluoromethoxy)phenyl)-2-((5-(5-(difluoromethyl)-1,3,4-oxadiazol-2-yl)pyrimidin-2-yl)amino)ethyl)methanesulfonamide] | > 30 | 370
9 | CS(=O)(=O)NCC(Nc1ncc(-c2nnc(C(F)F)o2)cn1)c1ccc(OC(F)F)cc1F (single isomer, unassigned) [116(−), N-(2-(4-(difluoromethoxy)-2-fluorophenyl)-2-((5-(5-(difluoromethyl)-1,3,4-oxadiazol-2-yl)pyrimidin-2-yl)amino)ethyl)methanesulfonamide] | > 30 | 260
10 | CS(=O)(=O)NCC(Nc1ncc(-c2nnc(C(F)F)o2)cn1)c1ccc(OC(F)(F)F)cc1 (single isomer, unassigned) [122(−), N-(2-((5-(5-(difluoromethyl)-1,3,4-oxadiazol-2-yl)pyrimidin-2-yl)amino)-2-(4-(trifluoromethoxy)phenyl)ethyl)methanesulfonamide] | > 30 | 840
11 | CS(=O)(=O)NCC(Nc1ncc(-c2nnc(C(F)F)o2)cn1)C1CC1 (single isomer, unassigned) [123(+), N-(2-cyclopropyl-2-((5-(5-(difluoromethyl)-1,3,4-oxadiazol-2-yl)pyrimidin-2-yl)amino)ethyl)methanesulfonamide] | > 30 | 1100
12 | CS(=O)(=O)NCC(Nc1ncc(-c2nnc(C(F)F)o2)cn1)C1CC1 (single isomer, unassigned) [123(−), N-(2-cyclopropyl-2-((5-(5-(difluoromethyl)-1,3,4-oxadiazol-2-yl)pyrimidin-2-yl)amino)ethyl)methanesulfonamide] | > 30 | 1100
13 | CN(CC(Nc1ncc(-c2nnc(C(F)F)o2)cn1)c1ccc(F)cc1F)S(C)(=O)=O (single isomer, unassigned) [137(+), N-(2-((5-(5-(difluoromethyl)-1,3,4-oxadiazol-2-yl)pyrimidin-2-yl)amino)-2-(2,4-difluorophenyl)ethyl)-N-methylmethanesulfonamide] | > 30 | 41
14 | CCS(=O)(=O)NCC(Nc1ncc(-c2nnc(C(F)F)o2)cn1)c1ccc(F)cc1F (single isomer, unassigned) [139(+), N-(2-((5-(5-(difluoromethyl)-1,3,4-oxadiazol-2-yl)pyrimidin-2-yl)amino)-2-(2,4-difluorophenyl)ethyl)ethanesulfonamide] | > 30 | 33
15 | CS(=O)(=O)CC(Nc1ncc(-c2nnc(C(F)F)o2)cn1)c1ccc(F)cc1 (single isomer, unassigned) [161(−), 5-(5-(difluoromethyl)-1,3,4-oxadiazol-2-yl)-N-(1-(4-fluorophenyl)-2-(methylsulfonyl)ethyl)pyrimidin-2-amine] | > 30 | 870
16 | Fc1ccc(C(COCC(F)(F)F)Nc2ncc(-c3nnc(C(F)F)o3)cn2)cc1 (single isomer, unassigned) [162(+), 5-(5-(difluoromethyl)-1,3,4-oxadiazol-2-yl)-N-(1-(4-fluorophenyl)-2-(2,2,2-trifluoroethoxy)ethyl)pyrimidin-2-amine] | > 30 | 130
17 | Fc1ccc(C(COCC(F)(F)F)Nc2ncc(-c3nnc(C(F)F)o3)cn2)cc1 (single isomer, unassigned) [162(−), 5-(5-(difluoromethyl)-1,3,4-oxadiazol-2-yl)-N-(1-(4-fluorophenyl)-2-(2,2,2-trifluoroethoxy)ethyl)pyrimidin-2-amine] | > 30 | 300
18 | Fc1ccc(C(COCC(F)(F)F)Nc2ncc(-c3nnc(C(F)F)o3)cn2)c(F)c1 (single isomer, unassigned) [163(+), 5-(5-(difluoromethyl)-1,3,4-oxadiazol-2-yl)-N-(1-(2,4-difluorophenyl)-2-(2,2,2-trifluoroethoxy)ethyl)pyrimidin-2-amine] | > 30 | 110
19 | Fc1ccc(C(COCC(F)(F)F)Nc2ncc(-c3nnc(C(F)F)o3)cn2)c(F)c1 (single isomer, unassigned) [163(−), 5-(5-(difluoromethyl)-1,3,4-oxadiazol-2-yl)-N-(1-(2,4-difluorophenyl)-2-(2,2,2-trifluoroethoxy)ethyl)pyrimidin-2-amine] | > 30 | 410
20 | CCS(=O)(=O)N(CC(Nc1ncc(-c2nnc(C(F)F)o2)cn1)c1ccc(F)cc1)CC(F)(F)F (single isomer, unassigned) [164(+), N-(2-((5-(5-(difluoromethyl)-1,3,4-oxadiazol-2-yl)pyrimidin-2-yl)amino)-2-(4-fluorophenyl)ethyl)-N-(2,2,2-trifluoroethyl)ethanesulfonamide] | > 30 | 110
21 | Fc1ccc(C(COC2CC2)Nc2ncc(-c3nnc(C(F)F)o3)cn2)c(F)c1 (single isomer, unassigned) [Example 134B, N-(2-cyclopropoxy-1-(2,4-difluorophenyl)ethyl)-5-(5-(difluoromethyl)-1,3,4-oxadiazol-2-yl)pyrimidin-2-amine] | – | 61
